From patent US11179348B2, “Combination comprising pterostilbene for the treatment of cancer” (FUNDACIÓN UNIVERSIDAD CATÓLICA DE VALENCIA SAN VICENTE …, priority 2015, dated 2021)

Experiments:
MeWo melanoma = assay: In vivo growth of MeWo melanoma xenografts in nu/nu mice; parameters: species or system human; settings: MeWo-RFP; 35 days after inoculation; Pter 30 mg/kg i.v. every 48 h and/or CRC infusion 0.3 μg/h
BxPC-3 pancreatic cancer = assay: In vivo growth of BxPC-3 pancreatic cancer xenografts; parameters: species or system human; settings: BxPC-3-RFP; 35 days after inoculation; Pter and/or CRC
corticosterone = assay: Plasma corticosterone levels (ELISA) in tumor-bearing mice; assay type: in vivo; settings: 12 h circadian time
From the text: (§1) Measurement of ACTH, Corticosterone, and NORA Levels.
(§2) Plasma levels of ACTH (Calbiotech, Inc., Spring Valley, Calif.), corticosterone (Kamiyama Biomedical Co., Seattle, Wash.), and NORA (IBL, Hamburg, Germany) were quantified by ELISA according to the instructions of the suppliers.

MelJuso melanoma = assay: In vivo growth of MelJuso melanoma xenografts in nu/nu mice; parameters: species or system human; settings: MelJuso-RFP; 35 days after inoculation; Pter 30 mg/kg i.v. every 48 h and/or CRC infusion 0.3 μg/h
AsPC-1 pancreatic cancer = assay: In vivo growth of AsPC-1 pancreatic cancer xenografts; parameters: species or system human; settings: AsPC-1-RFP; 28 days after inoculation; Pter and/or CRC
A2058 melanoma = assay: In vivo growth of A2058 melanoma xenografts in nu/nu mice; parameters: species or system human; settings: A2058-RFP; 35 days after inoculation; Pter 30 mg/kg i.v. every 48 h and/or CRC infusion 0.3 μg/h
ACTH = assay: Plasma ACTH levels (ELISA) in tumor-bearing mice; assay type: in vivo; settings: 6 h circadian time
From the text: as §1, §2

[1] = test system: glucocorticoid receptors (GR); assay: GR content of human cancer cells by [3H]-labeled ligand whole-cell binding assay

Q: Which results are given for C[C@]12C[C@H](O)[C@H]3[C@@H](CCC4=CC(=O)CC[C@@]43C)[C@@H]1CC[C@@H]2C(=O)CO [CRC, corticosterone, reference compound]?
A: Tumor vol. (MeWo melanoma): 426 ± 116 mm^3; Tumor vol. (BxPC-3 pancreatic cancer): 588 ± 158 mm^3; CRC (corticosterone; A2058-bearing mice, day 35): 205 ± 48 ng/mL plasma; CRC (corticosterone; AsPC-1-bearing mice, day 28): 324 ± 48 ng/mL plasma; CRC (corticosterone; BxPC-3-bearing mice, day 35): 177 ± 36 ng/mL plasma; CRC (corticosterone; MeWo-bearing mice, day 35): 177 ± 29 ng/mL plasma; CRC (corticosterone; MelJuso-bearing mice, day 35): 164 ± 41 ng/mL plasma; Tumor vol. (MelJuso melanoma): 240 ± 94 mm^3; Tumor vol. (AsPC-1 pancreatic cancer): 1066 ± 235 mm^3; Tumor vol. (A2058 melanoma): 857 ± 185 mm^3; ACTH (ACTH; AsPC-1-bearing mice, day 28): 106 ± 17 pg/mL plasma; ACTH (ACTH; BxPC-3-bearing mice, day 35): 55 ± 12 pg/mL plasma; GR number (binding sites/cell) ([1]; A2058-RFP tumors, day 35): 80 ± 7 10^3 GR/cell; GR number (binding sites/cell) ([1]; AsPC-1-RFP tumors, day 28): 67 ± 7 10^3 GR/cell; GR number (binding sites/cell) ([1]; BxPC-3-RFP tumors, day 35): 134 ± 36 10^3 GR/cell; GR number (binding sites/cell) ([1]; MeWo-RFP tumors, day 35): 49 ± 7 10^3 GR/cell; GR number (binding sites/cell) ([1]; MelJuso-RFP tumors, day 35): 46 ± 6 10^3 GR/cell
